The text below walks through data of US7601724B2, “Substituted pyrazolo[1,5-a]pyrimidines as protein kinase inhibitors” (Schering Corporation, priority 2002, dated 2009).

For the assay, the target named is T1, Cyclin E/CDK2 (Homo sapiens, UniProt P24941).
T1 construct: made in house; host or cells: SF9 insect cells, baculovirus co-infection
The experiment in a line: In vitro cyclin E/CDK2 kinase assay (33P-ATP, SPA beads), IC50 determination. The format is biochemical.

Compound `Cn1cc(-c2cnn3c(Nc4ccc(-n5ccnc5)cc4)cc(C4CCCNC4)nc23)cn1` (stereo not shown) [Example 90-C] returned an IC50 of 0.2 µM.
